Source: ChEMBL document CHEMBL3526109 (Drug Metab Dispos, 2011)

Legend:
Plasma [1] = experiment: Drug level in Sprague-Dawley rat plasma assessed as compound formation treated with [14C]brivanib alaninate at 100 mg/kg, po administered as single dose via gavage measured after 6 hrs by HPLC analysis; format: ADME, organism-based; conditions: in vivo
Plasma [2] = experiment: Drug level in human plasma assessed as compound formation treated with [14C]brivanib alaninate at 800 mg, po administered as single dose via gavage measured after 4 hrs by HPLC analysis; format: ADME, organism-based; conditions: in vivo
Plasma [3] = experiment: Drug level in human plasma assessed as compound formation treated with [14C]brivanib alaninate at 800 mg, po administered as single dose via gavage measured after 8 hrs by HPLC analysis; format: ADME, organism-based; conditions: in vivo
Homo sapiens [4] = experiment: Drug uptake in human plasma treated with [14C]brivanib alaninate assessed as AUC (0 to 12 hrs) of total radio activity at 800 mg, po administered as single oral dose by HPLC analysis; format: ADME, organism-based; conditions: in vivo
Homo sapiens [5] = experiment: AUC (0 to 12 hrs) human plasma treated with [14C]brivanib alaninate at 800 mg, po administered as single oral dose by HPLC analysis; format: ADME, organism-based; conditions: in vivo
Cynomolgus monkey [6] = experiment: AUC (0 to 12 hrs) cynomolgus monkey plasma treated with [14C]brivanib alaninate at 10 mg/kg, po administered as single oral dose by HPLC analysis; format: ADME, organism-based, Macaca fascicularis; conditions: in vivo
Plasma [7] = experiment: Drug level in cynomolgus monkey plasma assessed as compound formation treated with [14C]brivanib alaninate at 10 mg/kg, po administered as single dose via gavage measured after 6 hrs by HPLC analysis; format: ADME, organism-based, Macaca fascicularis; conditions: in vivo
Plasma [8] = experiment: Drug level in human plasma assessed as compound formation treated with [14C]brivanib alaninate at 800 mg, po administered as single dose via gavage measured after 12 hrs by HPLC analysis; format: ADME, organism-based; conditions: in vivo
[9] = Drug excretion in human urine treated with [14C]brivanib alaninate at 800 mg, po administered as single dose […] by HPLC analysis; format: ADME, organism-based; conditions: in vivo
[10] = Drug excretion in Sprague-Dawley rat feces treated with [14C]brivanib alaninate at 100 mg/kg, po administered as single dose via gavage by HPLC analysis; format: ADME, organism-based; conditions: in vivo
Plasma [11] = experiment: Drug level in Sprague-Dawley rat plasma assessed as compound formation treated with [14C]brivanib alaninate at 100 mg/kg, po administered as single dose via gavage measured after 1 hr by HPLC analysis; format: ADME, organism-based; conditions: in vivo
Plasma [12] = experiment: Drug level in human plasma assessed as compound formation treated with [14C]brivanib alaninate at 800 mg, po administered as single dose via gavage measured after 1 hr by HPLC analysis; format: ADME, organism-based; conditions: in vivo
Plasma [13] = experiment: Drug level in cynomolgus monkey plasma assessed as compound formation treated with [14C]brivanib alaninate at 10 mg/kg, po administered as single dose via gavage measured after 1 hr by HPLC analysis; format: ADME, organism-based, Macaca fascicularis; conditions: in vivo
Plasma [14] = experiment: Drug level in Sprague-Dawley rat plasma assessed as compound formation treated with [14C]brivanib alaninate at 100 mg/kg, po administered as single dose via gavage measured after 2 hrs by HPLC analysis; format: ADME, organism-based; conditions: in vivo
Plasma [15] = experiment: Drug level in cynomolgus monkey plasma assessed as compound formation treated with [14C]brivanib alaninate at 10 mg/kg, po administered as single dose via gavage measured after 12 hrs by HPLC analysis; format: ADME, organism-based, Macaca fascicularis; conditions: in vivo
[16] = Drug excretion in Sprague-Dawley rat urine treated with [14C]brivanib alaninate at 100 mg/kg, po administered as single dose via gavage by HPLC analysis; format: ADME, organism-based; conditions: in vivo
[17] = Drug excretion in bile duct-cannulated cynomolgus monkey bile treated with [14C]brivanib alaninate at 10 mg/kg, po administered as single dose via gavage by HPLC analysis; format: ADME, organism-based, Macaca fascicularis; conditions: in vivo
Plasma [18] = experiment: Drug level in human plasma assessed as compound formation treated with [14C]brivanib alaninate at 800 mg, po administered as single dose via gavage measured after 2 hrs by HPLC analysis; format: ADME, organism-based; conditions: in vivo
Rattus norvegicus [19] = experiment: Drug uptake in Sprague-Dawley rat plasma treated with [14C]brivanib alaninate assessed as AUC (0 to 6 hrs) of total radio activity at 100 mg/kg, po administered as single oral dose by HPLC analysis; format: ADME, organism-based; conditions: in vivo
Plasma [20] = experiment: Drug level in cynomolgus monkey plasma assessed as compound formation treated with [14C]brivanib alaninate at 10 mg/kg, po administered as single dose via gavage measured after 4 hrs by HPLC analysis; format: ADME, organism-based, Macaca fascicularis; conditions: in vivo
Rattus norvegicus [21] = experiment: AUC (0 to 6 hrs) Sprague-Dawley rat plasma treated with [14C]brivanib alaninate at 100 mg/kg, po administered as single oral dose by HPLC analysis; format: ADME, organism-based; conditions: in vivo
[22] = Drug excretion in cynomolgus monkey feces treated with [14C]brivanib alaninate at 10 mg/kg, po administered as single dose via gavage by HPLC analysis; format: ADME, organism-based, Macaca fascicularis; conditions: in vivo
Plasma [23] = experiment: Drug level in cynomolgus monkey plasma assessed as compound formation treated with [14C]brivanib alaninate at 10 mg/kg, po administered as single dose via gavage measured after 2 hrs by HPLC analysis; format: ADME, organism-based, Macaca fascicularis; conditions: in vivo
Cynomolgus monkey [24] = experiment: Drug uptake in cynomolgus monkey plasma treated with [14C]brivanib alaninate assessed as AUC (0 to 12 hrs) of total radio activity at 10 mg/kg, po administered as single oral dose by HPLC analysis; format: ADME, organism-based, Macaca fascicularis; conditions: in vivo
[25] = Drug excretion in bile duct-cannulated rat bile treated with [14C]brivanib alaninate at 100 mg/kg, po administered as single dose via gavage by HPLC analysis; format: ADME, organism-based; conditions: in vivo
[26] = Drug excretion in cynomolgus monkey urine treated with [14C]brivanib alaninate at 10 mg/kg, po administered as single dose via gavage by HPLC analysis; format: ADME, organism-based, Macaca fascicularis; conditions: in vivo
[27] = Drug excretion in human feces treated with [14C]brivanib alaninate at 800 mg, po administered as single dose […] by HPLC analysis; format: ADME, organism-based; conditions: in vivo
[28] = Drug level in Sprague-Dawley rat urine treated with [14C]brivanib alaninate at 100 mg/kg, po administered as single dose via gavage by mass spectrometry; format: ADME, organism-based; conditions: in vivo
[29] = Drug level in cynomolgus monkey urine treated with [14C]brivanib alaninate at 10 mg/kg, po administered as single dose via gavage by mass spectrometry; format: ADME, organism-based, Macaca fascicularis; conditions: in vivo
[30] = molecular target: Vascular endothelial growth factor receptor 2 (Homo sapiens, UniProt P35968); experiment: Inhibition of human recombinant VEGFR-2
[31] = molecular target: Fibroblast growth factor receptor 1 (Homo sapiens, UniProt P11362); experiment: Inhibition of human recombinant FGFR-1
Sequence of Fibroblast growth factor receptor 1 (P11362 whole entry): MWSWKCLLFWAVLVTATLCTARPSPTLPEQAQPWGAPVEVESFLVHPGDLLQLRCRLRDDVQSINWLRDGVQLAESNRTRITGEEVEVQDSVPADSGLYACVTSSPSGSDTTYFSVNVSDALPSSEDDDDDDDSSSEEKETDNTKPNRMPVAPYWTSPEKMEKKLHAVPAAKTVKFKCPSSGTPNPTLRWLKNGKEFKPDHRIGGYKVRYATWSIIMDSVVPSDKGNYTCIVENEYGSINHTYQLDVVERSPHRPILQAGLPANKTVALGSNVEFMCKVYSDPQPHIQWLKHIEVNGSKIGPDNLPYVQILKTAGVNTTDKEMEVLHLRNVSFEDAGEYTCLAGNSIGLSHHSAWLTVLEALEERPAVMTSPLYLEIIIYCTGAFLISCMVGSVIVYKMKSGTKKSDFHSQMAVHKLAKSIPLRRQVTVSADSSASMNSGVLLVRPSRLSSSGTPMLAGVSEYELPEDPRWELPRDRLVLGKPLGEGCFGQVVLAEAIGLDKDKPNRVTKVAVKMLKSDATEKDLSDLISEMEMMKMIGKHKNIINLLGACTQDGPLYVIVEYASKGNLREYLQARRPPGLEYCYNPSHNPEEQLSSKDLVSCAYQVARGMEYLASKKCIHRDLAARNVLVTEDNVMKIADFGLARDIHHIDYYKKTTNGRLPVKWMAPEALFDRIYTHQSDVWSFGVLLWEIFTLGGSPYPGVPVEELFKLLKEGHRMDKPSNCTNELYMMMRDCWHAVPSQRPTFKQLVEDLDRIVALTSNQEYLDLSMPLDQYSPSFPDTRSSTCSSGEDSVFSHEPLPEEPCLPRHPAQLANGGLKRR

Sequence of Vascular endothelial growth factor receptor 2 (P35968 whole entry): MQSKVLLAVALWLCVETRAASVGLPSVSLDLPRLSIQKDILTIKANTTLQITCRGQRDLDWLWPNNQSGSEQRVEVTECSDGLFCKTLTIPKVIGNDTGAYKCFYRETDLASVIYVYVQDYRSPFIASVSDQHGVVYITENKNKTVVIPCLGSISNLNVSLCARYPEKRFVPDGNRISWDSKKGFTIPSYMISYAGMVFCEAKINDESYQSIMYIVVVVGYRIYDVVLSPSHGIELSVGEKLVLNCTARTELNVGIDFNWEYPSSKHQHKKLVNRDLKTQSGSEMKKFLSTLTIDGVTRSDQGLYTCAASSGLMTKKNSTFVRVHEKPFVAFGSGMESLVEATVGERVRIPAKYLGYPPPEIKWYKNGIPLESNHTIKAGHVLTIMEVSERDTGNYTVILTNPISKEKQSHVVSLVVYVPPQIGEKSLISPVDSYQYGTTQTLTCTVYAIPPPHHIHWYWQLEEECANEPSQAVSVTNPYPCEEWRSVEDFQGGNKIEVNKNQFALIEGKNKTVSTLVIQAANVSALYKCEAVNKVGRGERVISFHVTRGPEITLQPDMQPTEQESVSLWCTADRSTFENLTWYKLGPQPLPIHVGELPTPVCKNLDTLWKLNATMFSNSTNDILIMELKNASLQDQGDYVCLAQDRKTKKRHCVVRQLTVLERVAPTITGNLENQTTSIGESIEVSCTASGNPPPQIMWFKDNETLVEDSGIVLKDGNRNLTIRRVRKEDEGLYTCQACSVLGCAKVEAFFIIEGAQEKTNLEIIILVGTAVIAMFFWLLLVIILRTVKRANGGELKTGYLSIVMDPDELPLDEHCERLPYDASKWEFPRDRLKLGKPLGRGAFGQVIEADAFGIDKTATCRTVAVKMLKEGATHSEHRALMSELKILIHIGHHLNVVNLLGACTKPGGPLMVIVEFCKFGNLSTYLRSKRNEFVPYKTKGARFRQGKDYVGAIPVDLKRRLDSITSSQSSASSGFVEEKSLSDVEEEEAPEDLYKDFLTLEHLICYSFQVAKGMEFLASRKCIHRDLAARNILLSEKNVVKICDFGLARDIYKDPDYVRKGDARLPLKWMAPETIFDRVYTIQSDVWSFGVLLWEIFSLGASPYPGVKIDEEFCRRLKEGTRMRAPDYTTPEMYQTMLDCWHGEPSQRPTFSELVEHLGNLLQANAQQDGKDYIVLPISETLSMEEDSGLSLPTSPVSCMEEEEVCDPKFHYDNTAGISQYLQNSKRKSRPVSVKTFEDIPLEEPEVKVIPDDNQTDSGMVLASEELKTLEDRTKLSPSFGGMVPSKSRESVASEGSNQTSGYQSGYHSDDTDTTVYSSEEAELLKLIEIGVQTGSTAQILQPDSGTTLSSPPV

Compound recovery (Plasma [1])	Compound recovery (Plasma [2])	Compound recovery (Plasma [3])	Compound recovery (Plasma [7])	Compound recovery (Plasma [8])	Compound recovery [9]	Compound recovery [10]	Compound recovery (Plasma [11])	Compound recovery (Plasma [12])	Compound recovery (Plasma [13])	Compound recovery (Plasma [14])	Compound recovery (Plasma [15])	Compound recovery [17]	Compound recovery (Plasma [18])	Compound recovery (Plasma [20])	Compound recovery [22]	Compound recovery (Plasma [23])	Compound recovery [25]	Compound recovery [26]	Compound recovery [27]	Compound	further results
20.9%	4.4%	7.6%	9.1%	8.9%	metabolite_not_detected	4.6%	30.7%	8.8%	2.9%	26.8%	5.7%	1.9%	6.7%	9.4%	metabolite_not_detected	5.9%	25.4%	0.7%	metabolite_not_detected	Cc1cc2c(F)c(Oc3ncnn4cc(OS(=O)(=O)O)c(C)c34)ccc2[nH]1	AUC metabolite/AUC radiolabel (Homo sapiens [4]): 5.8%; AUC (Homo sapiens [5]): 3835.4 ugequiv/l.hr; AUC (Cynomolgus monkey [6]): 5622.3 ugequiv/l.hr; Compound recovery [16]: 2.7%; AUC metabolite/AUC radiolabel (Rattus norvegicus [19]): 26.8%; AUC (Rattus norvegicus [21]): 37494.4 ugequiv/l.hr; AUC metabolite/AUC radiolabel (Cynomolgus monkey [24]): 8.1%
4.3%	3.6%	1.7%	7.9%	4.1%	3.6%	4.8%	5.8%	0.7%	3%	3.1%	3%	10.3%	2.9%	3.5%	2.4%	1.5%	1%	4.9%	8.3%	Cc1c(OC[C@@H](C)OS(=O)(=O)O)cn2ncnc(Oc3ccc4[nH]c(CO)cc4c3F)c12	AUC metabolite/AUC radiolabel (Homo sapiens [4]): 1.8%; AUC (Homo sapiens [5]): 1202.5 ugequiv/l.hr; AUC (Cynomolgus monkey [6]): 3272.2 ugequiv/l.hr; AUC metabolite/AUC radiolabel (Rattus norvegicus [19]): 3.9%; AUC (Rattus norvegicus [21]): 5443.1 ugequiv/l.hr; Compound recovery [28]: metabolite_detected; AUC metabolite/AUC radiolabel (Cynomolgus monkey [24]): 4.7%
					2.4%	5.7%						4.9%			4%		2.5%		26.6%	Cc1c(OC[C@@H](C)OS(=O)(=O)O)cn2ncnc(Oc3ccc4[nH]c(C(=O)O)cc4c3F)c12	Compound recovery [29]: metabolite_detected; Compound recovery [16]: metabolite_not_detected
					metabolite_not_detected	metabolite_not_detected						metabolite_not_detected			metabolite_not_detected		1.8%	metabolite_not_detected	metabolite_not_detected	Cc1c(O)cn2ncnc(Oc3ccc4[nH]c(C(=O)O)cc4c3F)c12	Compound recovery [28]: metabolite_detected
5.3%	11.4%	4.9%	6.9%	4.6%	0.4%	12.8%	5.1%	6.8%	3.1%	5.3%	3.5%	10.5%	7.6%	8.6%	22%	6.4%	0.9%	1.1%	7.4%	Cc1c(OC[C@@H](C)O)cn2ncnc(Oc3ccc4[nH]c(C(=O)O)cc4c3F)c12	AUC metabolite/AUC radiolabel (Homo sapiens [4]): 6.3%; AUC (Homo sapiens [5]): 4119.3 ugequiv/l.hr; AUC (Cynomolgus monkey [6]): 5006 ugequiv/l.hr; Compound recovery [16]: 0.5%; IC50 [30]: > 30 µM; AUC metabolite/AUC radiolabel (Rattus norvegicus [19]): 9.2%; AUC (Rattus norvegicus [21]): 12825.3 ugequiv/l.hr; IC50 [31]: > 30 µM; AUC metabolite/AUC radiolabel (Cynomolgus monkey [24]): 7.2%
6%	metabolite_not_detected	metabolite_not_detected	2.6%	metabolite_not_detected	metabolite_not_detected	1.8%	4.7%	metabolite_not_detected	0.9%	6.4%	3.3%	metabolite_not_detected	metabolite_not_detected	2.7%	0.5%	1.7%	1.4%	0.2%	metabolite_not_detected	Cc1cc2c(F)c(Oc3ncnn4cc(OCC(=O)O)c(C)c34)ccc2[nH]1	Compound recovery [28]: metabolite_detected
20%	20%	23%	9.1%	24.3%	3.3%	metabolite_not_detected	18.2%	metabolite_not_detected	3.3%	22.1%	12.5%	1.4%	11.3%	4.6%	metabolite_not_detected	3%	4%	0.3%	metabolite_not_detected	Cc1c(OS(=O)(=O)O)cn2ncnc(Oc3ccc4[nH]c(C(=O)O)cc4c3F)c12	AUC metabolite/AUC radiolabel (Homo sapiens [4]): 14.7%; AUC (Homo sapiens [5]): 9668.9 ugequiv/l.hr; AUC (Cynomolgus monkey [6]): 4597.3 ugequiv/l.hr; Compound recovery [16]: 5.1%; AUC metabolite/AUC radiolabel (Rattus norvegicus [19]): 21.1%; AUC (Rattus norvegicus [21]): 29545.4 ugequiv/l.hr; AUC metabolite/AUC radiolabel (Cynomolgus monkey [24]): 6.6%
